How the values were obtained:
[1] = system: SF-295; experiment: NCI-60 SRB screen; format: cell-based, human; conditions: Homo sapiens; single dose 10^−5 M; SF-295, CNS cancer; read-out: Growth inhibition (%)
[2] = system: M14; experiment: NCI-60 SRB screen; format: cell-based, human; conditions: Homo sapiens; single dose 10^−5 M; M14, Melanoma; read-out: Growth inhibition (%)
[3] = system: K-562; experiment: NCI-60 SRB screen; format: cell-based, human; conditions: Homo sapiens, K562; single dose 10^−5 M; K-562, Leukaemia; read-out: Growth inhibition (%)
[4] = system: NCI-H522; experiment: NCI-60 SRB screen; format: cell-based, human; conditions: Homo sapiens; single dose 10^−5 M; NCI-H522, Non-small cell lung carcinoma; read-out: Growth inhibition (%)
[5] = system: SR; experiment: NCI-60 SRB screen; format: cell-based; conditions: Homo sapiens, single dose 10^−5 M, Leukaemia, read-out: Growth inhibition (%)
[6] = system: HL-60(TB); experiment: NCI-60 SRB screen; format: cell-based, human; conditions: Homo sapiens; single dose 10^−5 M; HL-60(TB), Leukaemia; read-out: Growth inhibition (%)
[7] = system: RXF 393; experiment: NCI-60 SRB screen; format: cell-based, human; conditions: Homo sapiens; single dose 10^−5 M; RXF 393, Renal cancer; read-out: Growth inhibition (%)
[8] = system: MOLT-4; experiment: NCI-60 SRB screen; format: cell-based; conditions: Homo sapiens; single dose 10^−5 M; MOLT-4, Leukaemia; read-out: Growth inhibition (%)
[9] = system: TK-10; experiment: NCI-60 SRB screen; format: cell-based, human; conditions: Homo sapiens; single dose 10^−5 M; TK-10, Renal cancer; read-out: Growth inhibition (%)
[10] = system: OVCAR-8; experiment: NCI-60 SRB screen; format: cell-based, human; conditions: Homo sapiens; single dose 10^−5 M; OVCAR-8, Ovarian cancer; read-out: Growth inhibition (%)
[11] = system: SW-620; experiment: NCI-60 SRB screen; format: cell-based; conditions: Homo sapiens; single dose 10^−5 M; SW-620, Colon cancer; read-out: Growth inhibition (%)
[12] = system: NCI-H23; experiment: NCI-60 SRB screen; format: cell-based, human; conditions: Homo sapiens; single dose 10^−5 M; NCI-H23, Non-small cell lung carcinoma; read-out: Growth inhibition (%)
[13] = system: panel of 60 cancer cell lines; experiment: NCI-60 SRB screen, mean or range over the panel; format: cell-based, human; conditions: Homo sapiens; mean over the cell lines; single dose 10^−5 M; read-out: Mean growth inhibition (%)
[14] = system: NCI-H226; experiment: NCI-60 SRB screen; format: cell-based, human; conditions: Homo sapiens; single dose 10^−5 M; NCI-H226, Non-small cell lung carcinoma; read-out: Growth inhibition (%)
[15] = system: HOP-62; experiment: NCI-60 SRB screen; format: cell-based, human; conditions: Homo sapiens; single dose 10^−5 M; HOP-62, Non-small cell lung carcinoma; read-out: Growth inhibition (%)
[16] = system: SK-MEL-28; experiment: NCI-60 SRB screen; format: cell-based; conditions: Homo sapiens; single dose 10^−5 M; SK-MEL-28, Melanoma; read-out: Growth inhibition (%)
[17] = system: NCI-H460; experiment: NCI-60 SRB screen; format: cell-based, human; conditions: Homo sapiens; single dose 10^−5 M; NCI-H460, Non-small cell lung carcinoma; read-out: Growth inhibition (%)
[18] = system: EKVX; experiment: NCI-60 SRB screen; format: cell-based, human; conditions: Homo sapiens, single dose 10^−5 M, Non-small cell lung carcinoma, read-out: Growth inhibition (%)
[19] = system: SN12C; experiment: NCI-60 SRB screen; format: cell-based, human; conditions: Homo sapiens, SN12C; single dose 10^−5 M; SN 12 C, Renal cancer; read-out: Growth inhibition (%)
[20] = system: ACHN; experiment: NCI-60 SRB screen; format: cell-based; conditions: Homo sapiens, single dose 10^−5 M, Renal cancer, read-out: Growth inhibition (%)
[21] = system: OVCAR-3; experiment: NCI-60 SRB screen; format: cell-based, human; conditions: Homo sapiens; single dose 10^−5 M; OVCAR-3, Ovarian cancer; read-out: Growth inhibition (%)
[22] = system: NCI/ADR-RES; experiment: NCI-60 SRB screen; format: cell-based, human; conditions: Homo sapiens, single dose 10^−5 M, Ovarian cancer, read-out: Growth inhibition (%)
[23] = system: MALME-3M; experiment: NCI-60 SRB screen; format: cell-based, human; conditions: Homo sapiens, single dose 10^−5 M, Melanoma, read-out: Growth inhibition (%)
[24] = system: SK-MEL-2; experiment: NCI-60 SRB screen; format: cell-based, human; conditions: Homo sapiens; single dose 10^−5 M; SK-MEL-2, Melanoma; read-out: Growth inhibition (%)
[25] = system: 786-0; experiment: NCI-60 SRB screen; format: cell-based; conditions: Homo sapiens; single dose 10^−5 M; 786-0, Renal cancer; read-out: Growth inhibition (%)
[26] = system: HCC-2998; experiment: NCI-60 SRB screen; format: cell-based, human; conditions: Homo sapiens; single dose 10^−5 M; HCC-2998, Colon cancer; read-out: Growth inhibition (%)
[27] = system: SK-MEL-5; experiment: NCI-60 SRB screen; format: cell-based, human; conditions: Homo sapiens; single dose 10^−5 M; SK-MEL-5, Melanoma; read-out: Growth inhibition (%)
[28] = system: UO-31; experiment: NCI-60 SRB screen; format: cell-based, human; conditions: Homo sapiens; single dose 10^−5 M; UO-31, Renal cancer; read-out: Growth inhibition (%)
[29] = system: SK-OV-3; experiment: NCI-60 SRB screen; format: cell-based, human; conditions: Homo sapiens; single dose 10^−5 M; SK-OV-3, Ovarian cancer; read-out: Growth inhibition (%)
[30] = system: UACC-257; experiment: NCI-60 SRB screen; format: cell-based, human; conditions: Homo sapiens; single dose 10^−5 M; UACC-257, Melanoma; read-out: Growth inhibition (%)
[31] = system: IGROV1; experiment: NCI-60 SRB screen; format: cell-based, human; conditions: Homo sapiens, IGROV-1; single dose 10^−5 M; IGROV1, Ovarian cancer; read-out: Growth inhibition (%)
[32] = system: HT-29; experiment: NCI-60 SRB screen; format: cell-based; conditions: Homo sapiens; single dose 10^−5 M; HT-29, Colon cancer; read-out: Growth inhibition (%)
[33] = system: NCI-H322M; experiment: NCI-60 SRB screen; format: cell-based, human; conditions: Homo sapiens, single dose 10^−5 M, Non-small cell lung carcinoma, read-out: Growth inhibition (%)
[34] = system: CCRF-CEM; experiment: NCI-60 SRB screen; format: cell-based; conditions: Homo sapiens, single dose 10^−5 M, Leukaemia, read-out: Growth inhibition (%)
[35] = system: LOX IMVI; experiment: NCI-60 SRB screen; format: cell-based, human; conditions: Homo sapiens, single dose 10^−5 M, Melanoma, read-out: Growth inhibition (%)
[36] = system: SF-268; experiment: NCI-60 SRB screen; format: cell-based, human; conditions: Homo sapiens; single dose 10^−5 M; SF-268, CNS cancer; read-out: Growth inhibition (%)
[37] = system: HCT-15; experiment: NCI-60 SRB screen; format: cell-based, human; conditions: Homo sapiens; single dose 10^−5 M; HCT-15, Colon cancer; read-out: Growth inhibition (%)
[38] = system: KM12; experiment: NCI-60 SRB screen; format: cell-based, human; conditions: Homo sapiens; single dose 10^−5 M; KM12, Colon cancer; read-out: Growth inhibition (%)
[39] = system: A549/ATCC; experiment: NCI-60 SRB screen; format: cell-based, human; conditions: Homo sapiens, single dose 10^−5 M, Non-small cell lung carcinoma, read-out: Growth inhibition (%)
[40] = system: OVCAR-4; experiment: NCI-60 SRB screen; format: cell-based, human; conditions: Homo sapiens; single dose 10^−5 M; OVCAR-4, Ovarian cancer; read-out: Growth inhibition (%)
[41] = system: MDA-MB-435; experiment: NCI-60 SRB screen; format: cell-based; conditions: Homo sapiens, MDA-MB-435, read-out: Growth inhibition (%)
[42] = system: COLO 205; experiment: NCI-60 SRB screen; format: cell-based, human; conditions: Homo sapiens; single dose 10^−5 M; COLO 205, Colon cancer; read-out: Growth inhibition (%)
[43] = system: UACC-62; experiment: NCI-60 SRB screen; format: cell-based, human; conditions: Homo sapiens; single dose 10^−5 M; UACC-62, Melanoma; read-out: Growth inhibition (%)
[44] = system: HCT-116; experiment: NCI-60 SRB screen; format: cell-based, human; conditions: Homo sapiens; single dose 10^−5 M; HCT-116, Colon cancer; read-out: Growth inhibition (%)

CCN1CCN(C2=C(Cl)c3c(sc4c(F)cccc34)C(c3cccc([N+](=O)[O-])c3)N2)CC1 (stereo not shown) [Compound 8a, 4-Chloro-3–(4-ethylpiperzin-1-yl)-8-fluoro-1-(3-nitrophenyl)-1,2-dihydro [1]benzothieno[2,3-c]pyridine]
inhibition at 10 µM [1]: 0.4% | inhibition at 10 µM [2]: 6.73% | inhibition at 10 µM [3]: 13.2% | inhibition at 10 µM [4]: 14.3% | inhibition at 10 µM [5]: 23.5% | inhibition at 10 µM [6]: -9.32% | inhibition at 10 µM [7]: -2.44% | inhibition at 10 µM [8]: 5.94% | inhibition at 10 µM [9]: -41.7% | inhibition at 10 µM [10]: 2.09% | inhibition at 10 µM [11]: 4.03% | inhibition at 10 µM [12]: 7.1% | inhibition at 10 µM [13]: -0.2% | inhibition at 10 µM [14]: 17% | inhibition at 10 µM [15]: 3.76% | inhibition at 10 µM [16]: -10.8% | inhibition at 10 µM [17]: 0.6% | inhibition at 10 µM [18]: 4.5% | inhibition at 10 µM [19]: 2.25% | inhibition at 10 µM [20]: 9.21% | inhibition at 10 µM [21]: 1.03% | inhibition at 10 µM [22]: -1.63% | inhibition at 10 µM [23]: 1.57% | inhibition at 10 µM [24]: 3.85% | inhibition at 10 µM [25]: -7.31% | inhibition at 10 µM [26]: -2.53% | inhibition at 10 µM [27]: -14.1% | inhibition at 10 µM [28]: 35.8% | inhibition at 10 µM [29]: 1.74% | inhibition at 10 µM [30]: -7.62% | inhibition at 10 µM [31]: 23.8% | inhibition at 10 µM [32]: 2.3% | inhibition at 10 µM [33]: -1.6% | inhibition at 10 µM [34]: 1.89% | inhibition at 10 µM [35]: 6.7% | inhibition at 10 µM [36]: 7.38% | inhibition at 10 µM [37]: 2.5% | inhibition at 10 µM [38]: -1.16% | inhibition at 10 µM [39]: 1.8% | inhibition at 10 µM [40]: 3.25% | inhibition at 10 µM [41]: -6.27% | inhibition at 10 µM [42]: -11.9% | inhibition at 10 µM [43]: 11.6% | inhibition at 10 µM [44]: 15%

O=[N+]([O-])c1cccc(C2NC(N3CCOCC3)=C(Cl)c3c2sc2c(F)cccc32)c1 (stereo not shown) [Compound 8b, 4-Chloro-3-(4-morpholino)-8-fluoro-1-(3-nitrophenyl)-1,2-dihydro [1]benzothieno[2,3-c]pyridine]
inhibition at 10 µM [1]: 4.37% | inhibition at 10 µM [2]: 7.49% | inhibition at 10 µM [3]: 18.6% | inhibition at 10 µM [4]: 17.3% | inhibition at 10 µM [5]: 20.4% | inhibition at 10 µM [6]: -10.1% | inhibition at 10 µM [7]: 11.9% | inhibition at 10 µM [8]: 13.6% | inhibition at 10 µM [9]: -39.7% | inhibition at 10 µM [10]: 1.71% | inhibition at 10 µM [11]: 7.44% | inhibition at 10 µM [12]: 5.35% | inhibition at 10 µM [13]: 6.1% | inhibition at 10 µM [14]: 20.9% | inhibition at 10 µM [15]: 16.1% | inhibition at 10 µM [16]: -7.54% | inhibition at 10 µM [17]: 6.4% | inhibition at 10 µM [18]: 14.3% | inhibition at 10 µM [19]: 3.71% | inhibition at 10 µM [20]: 9.98% | inhibition at 10 µM [21]: 2.72% | inhibition at 10 µM [22]: 1.45% | inhibition at 10 µM [23]: -3.09% | inhibition at 10 µM [24]: 8.89% | inhibition at 10 µM [25]: -6.62% | inhibition at 10 µM [26]: -13.5% | inhibition at 10 µM [27]: -8.74% | inhibition at 10 µM [28]: 38.6% | inhibition at 10 µM [29]: -1.6% | inhibition at 10 µM [30]: -3.74% | inhibition at 10 µM [31]: 16.2% | inhibition at 10 µM [32]: 0.78% | inhibition at 10 µM [33]: 0.04% | inhibition at 10 µM [34]: 5% | inhibition at 10 µM [35]: 8.33% | inhibition at 10 µM [36]: 7.66% | inhibition at 10 µM [37]: 4.11% | inhibition at 10 µM [38]: 6.99% | inhibition at 10 µM [39]: -0.74% | inhibition at 10 µM [40]: 13.5% | inhibition at 10 µM [41]: -2.51% | inhibition at 10 µM [42]: -12.9% | inhibition at 10 µM [43]: 17.5% | inhibition at 10 µM [44]: 25.3%
